Data published in patent publication US20250320205A1, “STAT6 DEGRADERS” (Gilead Sciences, Inc., priority 2024, published 2025).

Experiments:
STAT6 = molecular target: T1, STAT6 (Homo sapiens, UniProt P42226); test: STAT6 Degrader Assay (HiBiT based, HeLa LgBiT clone 4.14 cells); type: cell-based; conditions: geometric mean across assay runs and compound batches; DC50 provided for test compounds with >80% Emax; read-out: STAT6 degradation DC50
T1 construct: These cells express endogenous STAT6; host or cells: HeLa LgBiT clone 4.14 (CRISPR knock-in of HiBiT into the endogenous STAT6 gene)
T1 sequence (P42226 1-847): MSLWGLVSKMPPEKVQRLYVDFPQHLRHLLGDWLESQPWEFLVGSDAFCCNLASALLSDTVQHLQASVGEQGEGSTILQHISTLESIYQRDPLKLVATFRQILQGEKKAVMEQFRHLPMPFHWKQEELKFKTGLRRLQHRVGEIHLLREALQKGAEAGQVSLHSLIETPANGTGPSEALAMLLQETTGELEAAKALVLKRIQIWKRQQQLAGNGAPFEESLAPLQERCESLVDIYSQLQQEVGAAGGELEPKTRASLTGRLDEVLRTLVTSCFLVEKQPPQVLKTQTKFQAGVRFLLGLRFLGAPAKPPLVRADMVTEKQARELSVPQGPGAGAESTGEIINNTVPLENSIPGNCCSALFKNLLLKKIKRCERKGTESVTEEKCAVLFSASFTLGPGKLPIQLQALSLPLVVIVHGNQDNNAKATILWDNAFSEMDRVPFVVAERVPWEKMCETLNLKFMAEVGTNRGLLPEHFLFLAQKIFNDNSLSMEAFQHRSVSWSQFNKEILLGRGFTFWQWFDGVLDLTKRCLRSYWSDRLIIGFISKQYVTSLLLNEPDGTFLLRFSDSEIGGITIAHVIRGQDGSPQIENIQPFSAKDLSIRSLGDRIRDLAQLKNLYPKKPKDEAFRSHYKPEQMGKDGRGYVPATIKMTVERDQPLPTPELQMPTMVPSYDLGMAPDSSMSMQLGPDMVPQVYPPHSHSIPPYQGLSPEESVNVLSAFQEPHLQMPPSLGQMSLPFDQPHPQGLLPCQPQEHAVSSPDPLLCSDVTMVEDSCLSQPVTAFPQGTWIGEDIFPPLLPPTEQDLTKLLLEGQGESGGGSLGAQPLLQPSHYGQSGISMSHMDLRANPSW
Outline: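 HeLa LgBiT clone 4.14 with CRISPR HiBiT-tagged endogenous STAT6, 5000 cells/well, compound exposure 4-24 h at 37° C. Residual STAT6 read as Nano-Glo luminescence after 0.5 h. 50 μM terfenadine set 100% degradation; DC50 in nM.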

[1] = tested on: Eotaxin-3 (CCL26) release; test: Human Whole Blood Eotaxin-3 Assay (IL-4 stimulated); type: cell-based; conditions: Homo sapiens; geometric mean across assay runs and compound batches; EC50 provided for test compounds with >80% Emax
Outline: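 Lithium-heparin human whole blood preincubated 2 h at 37 °C with compounds (4-fold dilutions, triplicate, 0.5% DMSO final). Then stimulated with 400 pM final recombinant human IL-4 for 48 h. Eotaxin-3 in supernatant quantified by MSD immunoassay.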

DC50 (STAT6)	EC50 [1]	Structure (SMILES)
50.8 nM	64.7 nM	CNc1cc(=O)n(-c2ccnc3c2cc(CN2CCC(c4c(F)cc(C(=O)N5CCC(CN6CCN(c7ccc(N[C@@H]8CCC(=O)NC8=O)cc7F)CC6)CC5)cc4F)CC2)n3C)cc1F (single isomer, unassigned) [Example 2g33]
1.2 nM	1.8 nM	CNc1ccn(-c2ccnc3c2cc(CN2CCC(c4c(F)cc(C(=O)N5CCn6nc(CN7CCC(c8ccc(NC9CCC(=O)NC9=O)cc8F)CC7)cc6C5)cc4F)CC2)n3C)c(=O)c1 (centres unmarked) [Example 2g100, 3-((4-(1-((5-(3,5-difluoro-4-(1-((1-methyl-4-(4-(methyl-amino)-2-oxopyridin-1(2H)-yl)-1H-pyrrolo[2,3-b]pyridin-2-yl)methyl)piperidin-4-yl)-benzoyl)-4,5,6,7-tetrahydro-pyrazolo[1,5-a]pyrazin-2-yl)-methyl)piperidin-4-yl)-3-fluorophenyl)amino)piperi-dine-2,6-dione]
0.6 nM	0.6 nM	CNc1cc(=O)n(-c2ccnc3c2cc([C@H](C)N2CCC(c4c(F)cc(C(=O)N5CCn6nc(CN7CCC(c8ccc(NC9CCC(=O)NC9=O)cc8F)CC7)cc6C5)cc4F)CC2)n3C)cc1F (stereo partly drawn) [Example 2g111, 3-((4-(1-((5-(3,5-difluoro-4-(1-((S)-1-(4-(5-fluoro-4-(methylamino)-2-oxopyridin-1(2H)-yl)-1-methyl-1H-pyrrolo[2,3-b]pyridin-2-yl)-ethyl)piperidin-4-yl)benzoyl)-4,5,6,7-tetrahydropyrazolo [1,5-a]pyrazin-2-yl)methyl)-piperidin-4-yl)-3-fluorophen-yl)amino)piperidine-2,6-dione]
9.6 nM	30.9 nM	CNc1cc(=O)n(-c2ccnc3c2cc([C@H](C)N2CC=C(c4c(F)cc(C(=O)N5CCC(CN6CCN(c7ccc(N[C@@H]8CCC(=O)NC8=O)cc7F)CC6)CC5)cc4F)CC2)n3C)cc1F (single isomer, unassigned) [Example 2g121]
0.6 nM	0.4 nM	Cc1cc(C(=O)N2CCn3nc(CN4CCC(c5ccc(NC6CCC(=O)NC6=O)cc5F)CC4)cc3C2)cc(F)c1C1=CCN([C@@H](C)c2cc3c(-n4ccc5c(c4=O)CCN5)ccnc3n2C)CC1 (stereo partly drawn) [Example 2g25, 3-((3-fluoro-4-(1-((5-(3-fluoro-5-methyl-4-(1-((S)-1-(1-methyl-4-(4-oxo-1,2,3,4-tetrahydro-5H-pyrrolo[3,2-c]pyridin-5-yl)-1H-pyrrolo[2,3-b]pyridin-2-yl)ethyl)-1,2,3,6-tetrahydropyridin-4-yl)benzo-yl)-4,5,6,7-tetrahydropyrazolo [1,5-a]pyrazin-2-yl)methyl)-piperidin-4-yl)phenyl)amino)-piperidine-2,6-dione]
6.6 nM	23.6 nM	CNc1ccn(-c2ccnc3c2cc([C@H](C)N2CC=C(c4c(C)cc(C(=O)N5CCC(CN6CCN(c7ncc(NC8CCC(=O)NC8=O)cc7F)C[C@@H]6C)CC5)cc4F)CC2)n3C)c(=O)c1 (stereo partly drawn) [Example 2g94, 3-((5-fluoro-6-((S)-4-((1-(3-fluoro-5-methyl-4-(1-((S)-1-(1-methyl-4-(4-(methyl-amino)-2-oxopyridin-1(2H)-yl)-1H-pyrrolo[2,3-b]pyridin-2-yl)ethyl)-1,2,3,6-tetrahydro-pyridin-4-yl)benzoyl)piperi-din-4-yl)methyl)-3-methyl-piperazin-1-yl)pyridin-3-yl)-amino)piperidine-2,6-dione]

The remaining lines, values behind:

Structure (SMILES)	DC50 (STAT6)	EC50 [1]
CNc1cc(=O)n(-c2ccnc3c2cc([C@H](C)N2CC=C(c4c(C)cc(C(=O)N5CCC(CN6CCN(c7ccc(NC8CCC(=O)NC8=O)cc7F)CC6)CC5)cc4F)CC2)n3C)cc1F (stereo partly drawn) [Example 2g91, 3-((3-fluoro-4-(4-((1-(3-fluoro-4-(1-((S)-1-(4-(5-fluoro-4-(methylamino)-2-oxopyridin-1(2H)-yl)-1-methyl-1H-pyrrolo[2,3-b]pyridin-2-yl)ethyl)-1,2,3,6-tetrahydropyridin-4-yl)-5-methyl-benzoyl)piperidin-4-yl)methyl)piperazin-1-yl)-phenyl)amino)piperidine-2,6-dione]	7 nM	9.2 nM
CNc1ccn(-c2ccnc3c2cc(CN2CCC(c4c(F)cc(C(=O)N5CCC(CN6CCN(c7ccc(N[C@@H]8CCC(=O)NC8=O)cc7F)CC6)CC5)cc4F)CC2)n3C)c(=O)c1 (single isomer, unassigned) [Example 2g57]	9.3 nM	50.3 nM
CNc1cc(=O)n(-c2ccnc3c2cc([C@H](C)N2CC=C(c4c(F)cc(C(=O)N5CCn6nc(CN7CCC(c8ccc(NC9CCC(=O)NC9=O)cc8F)CC7)cc6C5)cc4F)CC2)n3C)cc1F (stereo partly drawn) [Example 2g112, 3-((4-(1-((5-(3,5-difluoro-4-(1-((S)-1-(4-(5-fluoro-4-(methylamino)-2-oxopyridin-1(2H)-yl)-1-methyl-1H-pyr-rolo[2,3-b]pyridin-2-yl)ethyl)-1,2,3,6-tetrahydropyridin-4-yl)benzoyl)-4,5,6,7-tetra-hydropyrazolo[1,5-a]pyrazin-2-yl)methyl)piperidin-4-yl)-3-fluorophenyl)amino)piperi-dine-2,6-dione]	1.1 nM	0.9 nM
CNc1ccn(-c2ccnc3c2cc([C@H](C)N2CC=C(c4c(C)cc(C(=O)N5CCC(CN6CCN(c7ncc(N[C@H]8CCC(=O)NC8=O)cc7F)C[C@H]6C)CC5)cc4F)CC2)n3C)c(=O)c1 (single isomer, unassigned) [Example 2g114]	5.8 nM	6.5 nM
C[C@@H]1CN(c2ccc(NC3CCC(=O)NC3=O)cc2F)CCN1CC1CCN(C(=O)c2ccc(C3CCN([C@@H](C)c4cc5c(-n6ccc7c(c6=O)CCN7)ccnc5n4C)CC3)cc2)CC1 (stereo partly drawn) [Example 2f14, 3-((3-fluoro-4-((R)-3-methyl-4-((1-(4-(1-((S)-1-(1-methyl-4-(4-oxo-1,2,3,4-tetrahydro-5H-pyrrolo[3,2-c]pyridin-5-yl)-1H-pyrrolo[2,3-b]pyridin-2-yl)ethyl)piperidin-4-yl)-benzoyl)piperidin-4-yl)-meth-yl)piperazin-1-yl)phenyl)-amino)piperidine-2,6-dione]	7.8 nM	18.6 nM
Cc1cc(C(=O)N2CCC(CN3CCN(c4ccc(NC5CCC(=O)NC5=O)cc4F)CC3)CC2)cc(F)c1C1=CCN(Cc2cc3c(-n4ccc5c(c4=O)CCN5)ccnc3n2C)CC1 (centres unmarked) [Example 2g59, 3-((3-fluoro-4-(4-((1-(3-fluoro-5-methyl-4-(1-((1-methyl-4-(4-oxo-1,2,3,4-tetrahydro-5H-pyrrolo[3,2-c]pyridin-5-yl)-1H-pyrrolo [2,3-b]pyridin-2-yl)methyl)-1,2,3,6-tetrahydropyridin-4-yl)benzoyl)piperidin-4-yl)-methyl)piperazin-1-yl)phen-yl)amino)piperidine-2,6-dione]	6.1 nM	20.4 nM
CNc1ccn(-c2ccnc3c2cc([C@H](C)N2CC=C(c4c(C)cc(C(=O)N5CCn6nc(CN7CCC(c8ccc(N[C@H]9CCC(=O)NC9=O)c(OC)c8)CC7)cc6C5)cc4F)CC2)n3C)c(=O)c1 (single isomer, unassigned) [Example 2g117]	0.3 nM	0.5 nM
